In ChEMBL document CHEMBL1201862, “PubChem BioAssay data set” (2004):
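Cultured in 96-well plates, cells were exposed to test compound for 48 hours across five concentrations. GI50 = concentration required for 50% inhibition of growth.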 Active and inactive are the calls of the source. No stated cut-off is given here; in the data, active = GI50 up to about 1.1 µM and inactive = higher.

Assays:
Test in all cases: NCI anticancer screen, dose series, 48 h
[1] = test system: UACC-257
[2] = test system: NCI/ADR-RES
[3] = test system: RXF 393
[4] = test system: SK-MEL-5
[5] = test system: HL-60
[6] = test system: NCI-H522
[7] = test system: SNB-19
[8] = test system: K562
[9] = test system: HOP-92
[10] = test system: HCT-15
[11] = test system: OVCAR-3
[12] = test system: PC-3
[13] = test system: BT-549
[14] = test system: UACC-62
[15] = test system: SR
[16] = test system: MDA-MB-231
[17] = test system: ACHN
[18] = test system: IGROV-1
[19] = test system: MCF7
[20] = test system: CCRF-CEM

| SMILES | GI50 [1] | GI50 [2] | GI50 [3] | GI50 [4] | GI50 [5] | GI50 [6] | GI50 [7] | GI50 [8] | GI50 [9] | GI50 [10] [µM] | GI50 [11] | GI50 [12] | GI50 [13] | GI50 [14] | GI50 [15] | GI50 [16] | GI50 [17] | GI50 [18] | GI50 [19] | GI50 [20] |
| --- | --- | --- | --- | --- | --- | --- | --- | --- | --- | --- | --- | --- | --- | --- | --- | --- | --- | --- | --- | --- |
| CCNCCC1(CC)C(=O)NC(=O)NC1=O | > 100 µM (inactive) | > 100 µM (inactive) | > 100 µM (inactive) | > 100 µM (inactive) | 0.0288 µM (active) | > 100 µM (inactive) | > 100 µM (inactive) | > 100 µM (inactive) | > 100 µM (inactive) | > 100 | > 100 µM (inactive) | > 100 µM (inactive) | > 100 µM (inactive) | > 100 µM (inactive) | > 100 µM (inactive) | > 100 µM (inactive) | > 100 µM (inactive) | > 100 µM (inactive) | > 100 µM (inactive) |  |
| O=C1CSC(c2cccc(Oc3ccccc3)c2)N1c1ccc(Cl)cc1 (stereo unspecified) | 17.4 µM (inactive) | 24.4 µM (inactive) | 20.4 µM (inactive) | 11.9 µM (inactive) | 24.9 µM (inactive) | 16.3 µM (inactive) | 54.8 µM (inactive) | 15.7 µM (inactive) | 13.4 µM (inactive) | 26.4 | 39.4 µM (inactive) | 23 µM (inactive) | 27.7 µM (inactive) | 10.8 µM (inactive) | 14 µM (inactive) | 27.4 µM (inactive) | 26.1 µM (inactive) |  | 15.3 µM (inactive) | 51.4 µM (inactive) |
| CNC(=O)Nn1c(SC)nc2ccccc21 | > 100 µM (inactive) | > 100 µM (inactive) | > 100 µM (inactive) | > 100 µM (inactive) | > 100 µM (inactive) | > 100 µM (inactive) | > 100 µM (inactive) | > 100 µM (inactive) | > 100 µM (inactive) | > 100 |  | > 100 µM (inactive) | > 100 µM (inactive) | > 100 µM (inactive) | > 100 µM (inactive) | > 100 µM (inactive) | > 100 µM (inactive) | > 100 µM (inactive) | > 100 µM (inactive) | > 100 µM (inactive) |
| OCCOc1ccccc2cccc1-2 | > 100 µM (inactive) | > 100 µM (inactive) |  | > 100 µM (inactive) | > 100 µM (inactive) | > 100 µM (inactive) | > 100 µM (inactive) | 84.7 µM (inactive) | > 100 µM (inactive) | > 100 | > 100 µM (inactive) | > 100 µM (inactive) | > 100 µM (inactive) | > 100 µM (inactive) | 80 µM (inactive) | > 100 µM (inactive) | > 100 µM (inactive) | > 100 µM (inactive) | > 100 µM (inactive) | > 100 µM (inactive) |
| CCN(CC)c1nc(N(C)C)c2ccc(OC)cc2n1 | 11.5 µM (inactive) | 11.9 µM (inactive) | 13.6 µM (inactive) | 11.6 µM (inactive) | 3.64 µM (inactive) | 11.7 µM (inactive) | 20 µM (inactive) | 14 µM (inactive) | 18.5 µM (inactive) | 12.4 |  | 17.3 µM (inactive) | 22.8 µM (inactive) | 6.65 µM (inactive) | 12.7 µM (inactive) | 17.1 µM (inactive) | 12.5 µM (inactive) | 23.2 µM (inactive) | 10.9 µM (inactive) |  |
| Cc1cc([C@H](C#N)c2nc3ccccc3[nH]2)nc(Cl)n1 | 26.5 µM (inactive) | 30.1 µM (inactive) | 33.3 µM (inactive) | 13.7 µM (inactive) | 19.2 µM (inactive) |  | 71.6 µM (inactive) | > 100 µM (inactive) | 20.1 µM (inactive) | 25.8 |  | 30.9 µM (inactive) | 53.6 µM (inactive) | 22.3 µM (inactive) | 54.8 µM (inactive) | 59.3 µM (inactive) | 38.2 µM (inactive) | 54.5 µM (inactive) | 41.8 µM (inactive) | 30.8 µM (inactive) |
| COCC1OC(S(=O)(=O)c2ccccc2)C(O)C(OC)C1OC (stereo unspecified) | > 100 µM (inactive) | > 100 µM (inactive) | > 100 µM (inactive) | > 100 µM (inactive) | > 100 µM (inactive) | > 100 µM (inactive) | > 100 µM (inactive) | > 100 µM (inactive) |  | > 100 | > 100 µM (inactive) | > 100 µM (inactive) | > 100 µM (inactive) | > 100 µM (inactive) | > 100 µM (inactive) | > 100 µM (inactive) | > 100 µM (inactive) | > 100 µM (inactive) | > 100 µM (inactive) | > 100 µM (inactive) |
